# According to patent publication US10501494B2, “Uses of peptides to treat brain injury and disease” (priority 2013, dated 2019):
# Like-named read-outs stand apart in the source and are kept apart here.
# Assays:
# [1] = Survival of MethA ascites tumor-bearing mice treated with LPS; format: in vivo; conditions: 1 mg/Kg, 50 μgm LPS i.p.; vehicle control 5/20
# Method: Associated with the injection of LPS is the extensive production of tumor necrosis factor alpha (TNF-α). Mice injected with recombinant human TNF-α develop pilo erection of the hair (ruffling), diarrhea and a withdrawn and unkempt appearance, followed by death if sufficient amounts are given. Rats treated with TNF become hypotensive, tachypneic and die of sudden respiratory arrest. Administration of DAPTA (1 mg/Kg) to MethA ascites tumor-bearing mice that were treated with 50 μgm LPS by i.p. injection, had better survival (15/20 in the DAPTA treated group compared to 5/20 in the vehicle control treated group). Thus DAPTA blocks septic shock via innate immune pathways, like the Toll receptors, that cause inflammation in the brain and that are typically activated in injuries.
# [2] = molecular target: CCL2 (MCP-1) chemotaxis, CCR5/CCR2 (Homo sapiens, UniProt P41597); conditions: human monocytes, FIG. 1
# From the text: Triplicate determinations were made and results are expressed as the mean plus or minus SEM. The experiment shown is a direct comparison among all RAPs. Statistical analysis was by unpaired t-test, with significance set at the p<0.01 (*) level for difference from CCL2 only chemotaxis.
# [3] = system: microglial and astrocytes; conditions: daily peripheral administration, hippocampus; cited from earlier work
# [4] = system: chemokine receptor 8 (CCR8); assay: Blocking of chemokine receptor 8; format: cell-based
# From the text: The peptides share activity to block diverse chemokine receptors. […] Thus again, with a different receptor target, the all-D peptide performs very similarly to its mostly L-amino acid prototype first described in Pert, 1986. (FIG. 3).
# [5] = system: inflammatory cytokines; conditions: Hu; Ruff, 2003; cited from earlier work
# [6] = system: inflammatory cytokines; conditions: Rat; Padi, 2012; cited from earlier work
# [7] = nerve injury model; Padi; cited from earlier work
# [8] = system: inflammatory cytokines; conditions: Rat; unpublished
# [9] = molecular target: CCL2/CCR2 (Homo sapiens, UniProt P41597); conditions: human monocytes
# [10] = molecular target: MIP-1β (CCL4)/CCR5 (Homo sapiens, UniProt P51681); conditions: low (sub-pM) concentrations, MIP-1β 50 ng/mL, monocytes treated with GM-CSF for 48 hours
# From the text: It is compared for biopotency with an all-D amino acid close analog whereby all of the amino acids are made in the D form (RAP-310) to block the CCR5 chemokine receptors.
# Data are the average of triplicate determinations. Data are presented as Mean±SEM.
# [11] = molecular target: T1, CCR2 (MCP-1) (Homo sapiens, UniProt P41597); assay: MCP-1 elicited chemotaxis of human monocytes, all-D-pentapeptides (FIG. 2); format: cell-based; conditions: 20 pM peptide for 30 minutes, MCP-1 0.6 nM for 2 hours, purified human monocytes
# T1 construct: Purified human monocytes were treated with 20 pM of All-D-pentapeptides; endogenous in cells; host or cells: purified human monocytes
# From the text: A representative experiment is shown comprising triplicate determinations and is presented as relative fluorescence units, Mean±SEM.
# T1 sequence (P41597 whole entry): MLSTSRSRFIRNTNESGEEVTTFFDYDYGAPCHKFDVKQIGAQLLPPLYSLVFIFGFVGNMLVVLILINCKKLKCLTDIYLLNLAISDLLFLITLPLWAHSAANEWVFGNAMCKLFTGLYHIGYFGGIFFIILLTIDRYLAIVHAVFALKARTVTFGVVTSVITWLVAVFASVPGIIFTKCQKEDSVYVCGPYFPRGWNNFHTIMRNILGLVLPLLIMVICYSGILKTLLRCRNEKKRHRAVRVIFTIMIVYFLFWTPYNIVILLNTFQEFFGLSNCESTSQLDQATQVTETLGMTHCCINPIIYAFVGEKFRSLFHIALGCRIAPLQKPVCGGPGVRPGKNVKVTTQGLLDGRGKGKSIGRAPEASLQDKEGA
# MIP-1β (CCL4)/CCR5, sequence (P51681 whole entry): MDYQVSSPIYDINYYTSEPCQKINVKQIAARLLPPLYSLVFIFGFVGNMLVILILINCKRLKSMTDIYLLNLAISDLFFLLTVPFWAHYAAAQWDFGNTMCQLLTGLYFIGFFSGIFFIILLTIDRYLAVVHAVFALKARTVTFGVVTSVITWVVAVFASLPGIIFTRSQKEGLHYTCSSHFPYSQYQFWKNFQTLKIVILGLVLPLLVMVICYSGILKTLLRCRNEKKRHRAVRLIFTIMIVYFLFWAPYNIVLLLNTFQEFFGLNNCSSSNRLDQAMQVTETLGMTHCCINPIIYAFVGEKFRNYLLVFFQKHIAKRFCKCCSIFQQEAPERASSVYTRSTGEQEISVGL
# CCL2 (MCP-1) chemotaxis, CCR5/CCR2, sequence (P41597 whole entry): as the sequence (P41597 whole entry) above
# CCL2/CCR2, sequence (P41597 whole entry): as above
compound,measurement,setting,value
"C[C@@H](N)C(=O)N[C@@H](CO)C(=O)N[C@H](C(=O)N[C@H](C(=O)N[C@H](C(=O)N[C@@H](CC(N)=O)C(=O)N[C@@H](Cc1ccc(O)cc1)C(=O)N[C@H](C(N)=O)[C@@H](C)O)[C@@H](C)O)[C@@H](C)O)[C@@H](C)O [RAP-101, D-Ala1-STTTNYT-NH2]",survival,[1],15/20
same,potency to block CCL2 (MCP-1) chemotaxis,[2],most potent
same,"inflammatory response induced by LPS (number and reactive state of microglial and astrocytes, NFkB expression)",[3],dramatically attenuated
same,blocking of CCR8,[4],blocks
same,IL-1 change,[5],decrease
same,IL-6 change,[5],decrease
same,IL-8 change,[5],decrease
same,TNF-α change,[5],decrease
"C[C@H](O)[C@@H](N)C(=O)N[C@@H](C(=O)N[C@H](CC(N)=O)C(=O)N[C@H](Cc1ccc(O)cc1)C(=O)N[C@@H](C(=O)O)[C@H](C)O)[C@H](C)O [RAP-103, All-D-TTNYT]",IL-1β change,[6],decrease
same,IL-6 change,[6],decrease
same,"inflammation, cytokine secretion and monocyte infiltration",[7],blocks
same,CCL2 change,[8],decrease
same,CCL3 change,[8],decrease
same,CCR2 change,[8],decrease
same,CCR5 change,[8],decrease
same,MCP-1 change,[8],decrease
same,MIP-1α change,[8],decrease
same,TNF-α change,[8],decrease
C[C@H](O)[C@@H](NC(=O)[C@@H](Cc1ccc(O)cc1)NC(=O)[C@@H](CC(N)=O)NC(=O)[C@H](NC(=O)[C@H](NC(=O)[C@H](NC(=O)[C@@H](CO)NC(=O)[C@@H](C)N)[C@H](C)O)[C@H](C)O)[C@H](C)O)C(=O)O [RAP-310],loss of potency in blocking CCL2-elicited chemotaxis compared to RAP-101,[9],minimal loss of potency
same,blocking of CCR8,[4],comparable potency
same,potency to block CCR5-mediated human monocyte chemotaxis,[10],comparable potency
Asn-Thr-Arg-Tyr-Arg,inhibition of MCP-1 elicited chemotaxis,[11],efficacious
Asn-Thr-Ser-Tyr-Arg (NTSYR; Human immunodeficiency virus),inhibition of MCP-1 elicited chemotaxis,[11],efficacious
Asn-Thr-Ser-Tyr-Gly (NTSYG; Human immunodeficiency virus),inhibition of MCP-1 elicited chemotaxis,[11],efficacious
Glu-Thr-Trp-Tyr-Ser (ETWYS; Human immunodeficiency virus),inhibition of MCP-1 elicited chemotaxis,[11],efficacious
Ile-Asn-Asn-Tyr-Thr (INNYT; Human immunodeficiency virus),inhibition of MCP-1 elicited chemotaxis,[11],efficacious
Ile-Asp-Asn-Tyr Thr (IDNYT; Human immunodeficiency virus),inhibition of MCP-1 elicited chemotaxis,[11],efficacious
Ser-Ser-Thr-Tyr-Arg (SSTYR; Human immunodeficiency virus),inhibition of MCP-1 elicited chemotaxis,[11],efficacious
Thr-Thr-Ser-Tyr-Thr (TTSYT; Human immunodeficiency virus),inhibition of MCP-1 elicited chemotaxis,[11],efficacious
